Patent US20260345568A1, “INHIBITING MONOACYLGLYCEROL LIPASE (MAGL)” (PSY THERAPEUTICS, INC., priority 2023, published 2026)
pIC50: −log10 of the molar value.

Key:
Flag-tagged MAGL enzyme = target: T1, Flag-tagged MAGL enzyme (Homo sapiens, UniProt Q99685); test: Reversible MAGL inhibition, washout of immobilized Flag-tagged MAGL enzyme (Example C); type: biochemical; settings: for activity at 1 µM: 0.5 h, relative to control (no inhibitor before washout), immediately following a 30 minute washout, pre-washout 1 μM, read-out: % MAGL activity returning after washout; for degree to which MAGL enzymatic activity returned following washout: pre-washout compound concentration 1 μM
T1 sequence (Q99685 1-303): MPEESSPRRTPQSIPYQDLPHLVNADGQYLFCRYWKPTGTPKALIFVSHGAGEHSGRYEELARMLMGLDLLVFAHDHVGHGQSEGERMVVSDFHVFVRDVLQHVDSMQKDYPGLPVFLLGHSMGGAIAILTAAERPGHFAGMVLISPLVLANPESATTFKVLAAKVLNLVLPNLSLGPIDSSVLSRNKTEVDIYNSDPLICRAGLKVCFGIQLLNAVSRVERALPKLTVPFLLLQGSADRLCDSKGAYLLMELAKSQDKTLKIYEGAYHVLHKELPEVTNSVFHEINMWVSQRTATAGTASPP
Description: The reversible mechanism of MAGL inhibition of a test compound of Formula (I) can be determined. Flag-tagged MAGL enzyme will be immobilized on anti-Flag beads Immobilized enzyme will be incubated+/−inhibitor at a dose that produces complete inhibition. Colorimetric substrate (4-NPA) will be added and the reaction monitored on a plate reader for 30 minutes to verify complete inhibition. Immobilized enzyme will then be washed thoroughly to remove the inhibitor, and fresh substrate will be added. The reaction will be monitored for an additional 30 minutes; returning enzymatic activity will indicate reversibility of inhibition.
For some test compounds, % activity returning after washout may be less than 100% if complete compound unbinding takes longer than 30 minutes.

human MAGL = target: T2, human MAGL (Homo sapiens, UniProt Q99685); test: MAGL inhibition potency, 4-nitrophenyl acetate (4NPA) hydrolysis, absorbance 405 nm (Example A); type: biochemical; settings: Method 12: Reaction Biology MAGL enzyme, 15 nM; 4NPA substrate; read-out: MAGL Potency (Detection Method)
T2 construct: recombinant MAGL enzyme (aa 2-303 RBC, internal preparation)
T2 sequence (Q99685 2-303): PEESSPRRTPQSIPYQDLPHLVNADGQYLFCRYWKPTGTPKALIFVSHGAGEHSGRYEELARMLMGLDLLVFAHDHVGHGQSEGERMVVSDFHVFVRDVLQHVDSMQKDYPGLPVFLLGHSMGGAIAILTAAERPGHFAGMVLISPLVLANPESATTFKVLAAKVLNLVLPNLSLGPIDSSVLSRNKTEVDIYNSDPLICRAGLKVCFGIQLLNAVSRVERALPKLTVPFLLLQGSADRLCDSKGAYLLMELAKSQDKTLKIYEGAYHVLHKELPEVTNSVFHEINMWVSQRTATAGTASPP
Source text: The potency of certain compounds for inhibiting MAGL were obtained using the following assays.
The monoacylglycerol lipase inhibitor screening assay kit from Cayman Chemical was used to measure the MAGL potency for the compounds in Tables A-1, A-2, A-3.
Cayman's Monoacylglycerol Lipase Inhibitor Screening Assay provides a method for screening human MAGL inhibitors. MAGL hydrolyzes 4-nitrophenylacetate resulting in a yellow product, 4-nitrophenol, with an absorbance of 405-412 nm.
MAGL Inhibition was measured by the following assay. Monoacylglycerol Lipase (MAGL) inhibition was measured using recombinant MAGL enzyme (aa 2-303 RBC, internal preparation) and the substrate 4-Nitrophenyl acetate (4NPA) (Sigma-Aldrich, N8130). Hydrolysis of the substrate in the presence of the enzyme was measured by absorbance at 405 nm. 10 μL of assay buffer (10 mM Tris pH 7.5, 1 mM EDTA, 0.9% DMSO) was added to a black 384-well non-binding plate with clear bottom (Greiner, 781906) for each reaction. Compounds were dispensed using an acoustic liquid handler (Echo, Beckman) at 45 nL (0.1% DMSO). Test compounds and control for MAGL inhibitor JZL-184 (Caymen Chemical, 13158) were tested in 10-concentration IC50 mode with 3-fold serial dilution at a starting concentration of […]. DMSO control wells were included for reference. A 10.8 nM (1.8×) MAGL mix in assay buffer was prepared, with 25 μL added to each reaction well, for a final assay concentration of […]. No enzyme wells received 25 μL of buffer. Plate was incubated at room temperature for 30 minutes. 35 mM solution of 4NPA in methanol was prepared daily A 4.5×4NPA substrate solution was prepared in assay buffer and 10 μL was added to each reaction well, for a final assay concentration of 0.25 mM. Plate was spun for 1 minute at 1000 rpm before measuring absorbance using a CLARIOstar plate reader (BMG Labtech). A kinetic reading at 405 nm was done every minute for 30 minutes. Data was analyzed using the linear slope of the reaction progress curve and the average of the no-enzyme wells (background) was subtracted from the data. The background-subtracted slope data was converted to % activity using the average of wells with enzyme and DMSO vehicle. IC50s were calculated using GraphPad software (Sigmoidal dose response, variable slope equation).
Table 8 provides potency measurements of MAGL inhibition measured using the Potency Assay of Example A above, with the following modifications described in Table C.
The number after each letter for potency measurement value indicates the Method from Table C that was used to obtain that measurement value (e.g. “A(1)” indicates an IC50 measurement of <50 nM obtained from the Method 1 of Example A in Table C).

human recombinant FAAH = target: T3, human recombinant FAAH (Homo sapiens, UniProt O00519); test: FAAH counter-screen, AMC arachidonoyl amide substrate (Example B); type: biochemical; settings: Method B; 20 uM AAMCA substrate
T3 construct: purchased Cayman Chemical 700302 (enzyme); kit Item No. 10005196
T3 sequence (O00519 1-579): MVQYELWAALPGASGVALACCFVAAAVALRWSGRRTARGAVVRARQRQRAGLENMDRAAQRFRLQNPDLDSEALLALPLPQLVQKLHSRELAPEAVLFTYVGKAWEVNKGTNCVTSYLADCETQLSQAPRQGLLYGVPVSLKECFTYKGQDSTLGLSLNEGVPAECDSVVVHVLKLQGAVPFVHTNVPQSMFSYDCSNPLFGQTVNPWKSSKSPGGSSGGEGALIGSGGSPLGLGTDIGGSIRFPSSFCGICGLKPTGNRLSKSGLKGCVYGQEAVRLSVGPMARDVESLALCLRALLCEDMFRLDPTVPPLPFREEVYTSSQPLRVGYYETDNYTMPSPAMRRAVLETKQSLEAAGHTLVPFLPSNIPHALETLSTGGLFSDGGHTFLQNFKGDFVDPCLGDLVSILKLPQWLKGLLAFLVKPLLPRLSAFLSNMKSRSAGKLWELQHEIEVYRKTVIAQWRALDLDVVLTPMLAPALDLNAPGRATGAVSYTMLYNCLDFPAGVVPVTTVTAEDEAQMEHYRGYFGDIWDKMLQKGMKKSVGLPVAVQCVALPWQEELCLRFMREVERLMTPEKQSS
Description: Comparative compound potency at FAAH can be obtained with the following assay.
MAGL inhibitor compounds were also counter-screened for FAAH inhibition potency using the following assay. Assessment of FAAH inhibition was performed using Fatty Acid Amide Hydrolase Inhibitor Screening Assay Kit (Cayman Item No. 10005196) following manufacture's instruction with some modifications. The kit utilizes human recombinant FAAH and the fluorescent substrate, AMC Arachidonoyl amide (AAMCA). […] 300 nL or 30 nL of test compounds were delivered into a 384-well black plate (Corning, 3573) using a Labcyte Echo, followed by addition of 15 μL of FAAH enzyme (Cayman, 700302) in assay buffer. After a 5-minute pre-incubation at room temperature, 10 μL of AAMCA was added in assay buffer to start the reaction. Final concentration of FAAH enzyme is not specified and AAMCA substrate was used at the 20 uM. After these dilutions, the final concentration of the test compounds ranged from 100 μM to 5.08 nM or 10 μM down to 0.508 nM. The reaction was allowed to progress for 60 minutes, while the plate was read on an Envision plate reader at an Ex/Em of 350/460 nm with readings every minute. The data was analyzed in Microsoft Excel, using the slope between 30 and 59 minutes. The average of the no-enzyme wells (background) was subtracted from the data. The background-subtracted slope data was converted to % activity using the average of wells with enzyme and DMSO vehicle. IC50 values were calculated using GraphPad software (Sigmoidal dose response, variable slope equation).
Compounds listed in Table D were tested in the FAAH Counter-screen of Example B.

[1] = tested on: brain and peripheral 2-AG; brain AA; settings: irreversible MAGL inhibition; cited from earlier work

| activity at 1 µM (Flag-tagged MAGL enzyme) | degree to which MAGL enzymatic activity returned following washout (Flag-tagged MAGL enzyme) | pIC50 (human MAGL) | pIC50 (human recombinant FAAH) | SMILES | brain AA [1] | brain and peripheral 2-AG [1] |
| --- | --- | --- | --- | --- | --- | --- |
| > 50% | 123% | > 7.30 | < 5.00 | O=C(c1cc(O)ccc1F)N1CC2(CC(n3nc(C(F)(F)F)cc3-c3ccccn3)C2)C1 [Compound 5, (2-fluoro-5-hydroxyphenyl){6-[5-(2-pyridyl)-3-(trifluoromethyl)-1-pyrazolyl]-2-aza-2-spiro[3.3]heptyl}methanone] | – | – |
| > 50% | 122% | > 7.30 | < 5.00 | O=C(c1cc(O)ccc1F)N1CC2(CC(n3nc(-c4ccc(=O)[nH]c4)cc3C(F)(F)F)C2)C1 [Compound 10, 5-(1-{2-(2-fluoro-5-hydroxybenzoyl)-2-aza-6-spiro[3.3]heptyl}-5-(trifluoromethyl)-3-pyrazolyl)-2(1H)-pyridinone] | – | – |
| > 50% | 135% | > 7.30 | < 5.00 | O=C(c1cc(O)ccc1F)N1CC2(CC(n3nc(-c4ccc[nH]c4=O)cc3C(F)(F)F)C2)C1 [Compound 12, 3-(1-{2-(2-fluoro-5-hydroxybenzoyl)-2-aza-6-spiro[3.3]heptyl}-5-(trifluoromethyl)-3-pyrazolyl)-2(1H)-pyridinone] | – | – |
| > 50% | 99% | > 7.30 | < 5.00 | COc1ncccc1-c1cc(C(F)(F)F)n(C2CC3(C2)CN(C(=O)c2cc(O)ccc2F)C3)n1 [Compound 15, (2-fluoro-5-hydroxyphenyl)(6-(3-(2-methoxypyridin-3-yl)-5-(trifluoromethyl)-1H1-pyrazol-1-yl)-2-azaspiro[3.3]heptan-2-yl)methanone] | – | – |
| > 50% | 89% | > 7.30 | < 5.00 | COc1ccc(-c2cc(C(F)(F)F)n(C3CC4(C3)CN(C(=O)c3cc(O)ccc3F)C4)n2)cn1 [Compound 17, (2-fluoro-5-hydroxyphenyl) (6-(3-(6-methoxypyridin-3-yl)-5-(trifluoromethyl)-1H-pyrazol-1-yl)-2-azaspiro [3.3]heptan-2-yl) methanone] | – | – |

| SMILES | activity at 1 µM (Flag-tagged MAGL enzyme) | degree to which MAGL enzymatic activity returned following washout (Flag-tagged MAGL enzyme) | pIC50 (human MAGL) | pIC50 (human recombinant FAAH) | brain AA [1] | brain and peripheral 2-AG [1] |
| --- | --- | --- | --- | --- | --- | --- |
| O=C(Oc1ccc([N+](=O)[O-])cc1)N1CCC(C(O)(c2ccc3c(c2)OCO3)c2ccc3c(c2)OCO3)CC1 [JZL-184, reference compound] | < 1% | complete lack of return of MAGL enzymatic activity | – | – | reduce | increase |
